≈ marks a conversion by molar mass, not a printed value.
Experiments:
[1] = set-up: method as in PMID 30663371; conditions: limonoid from Meliaceae; cited from earlier work
[2] = set-up: method as in PMID 30663371; conditions: limonoid from Meliaceae; cited from earlier work; remark: listed apart in the source
[3] = tested on: multidrug-resistant Dd2 strain of Plasmodium falciparum (PfDd2); experiment: Antiplasmodial SYBR Green I fluorescence assay, PfDd2 strain; assay type: cell-based
Excerpt: (§1) The parasite strains used in this study are continuously cultured at the Antimicrobial and Biocontrol Agents Unit of the University of Yaoundé I, and were graciously provided by BEI Resources (https://www.beiresources.org (accessed on 16 February 2019)). They comprise the Leishmania donovani strain (1S(MHOM/SD/62/1S), the multiresistant (PfDd2), and the chloroquine-sensitive (Pf3D7-(MRA-102)) strains of Plasmodium falciparum. RPMI 1640 media supplemented with 0.2% sodium bicarbonate (Sigma Aldrich, Billings, MT, USA), 0.5% Albumax II (Gibco), 1% hypoxanthine 100X (Gibco, Billings, MT, USA), 25 mM HEPES, and 0.04% gentamicin (Sigma Aldrich) was used to sustain P. falciparum strains in sterile petri dishes. Fresh red blood cells from healthy O^+ human volunteers were also added to the medium. These cells were suspended at 4% hematocrit (v/v) and incubated at 37 °C in a humidified environment with 5% CO2. To regularly maintain the culture, fresh medium was added to the culture every day. Thin blood smears stained with 10% Giemsa were used to microscopically monitor cell-cycle transition and parasitemia under immersion oil.
(§2) The antiplasmodial efficacy of the samples was evaluated using the SYBR Green I-based fluorescence assay, as previously reported by Smilkstein et al., on a sorbitol-synchronized ring stage culture of Plasmodium falciparum (PfDd2 and Pf3D7 strains). The test relies on the development of intense fluorescence following SYBR green binding to the exposed DNA found in wells containing healthy cells. Ninety microliters of parasites prepared with 1% hematocrit and 2% parasitemia and 10 μL of test sample extracts, fractions, isolated chemicals, chloroquine, and artemisinin were each added in triplicate into wells of a flat-bottomed microplate. The final test concentration values for the samples varied from 50 μg/mL-0.08 μg/mL and 100 μg/mL-0.16 μg/mL for extract/fractions. Following a 72 h incubation at 37 °C, 100 μL of SYBR Green I solution prepared with lysis buffer (0.2 μL of 10,000 SYBR Green I per mL of lysis buffer) made of EDTA (5 mM), Tris (20 mM; pH 7.5), Triton X-100 (0.08%; v/v), and saponin (0.008%; m/v) was added to each well. Fluorescence measurements were taken using an Infinite M200 microplate reader (Tecan, MT, USA) at emission and excitation wavelengths of 538 and 485 nm, respectively.
(§3) The resulting fluorescence readings were used to calculate the growth inhibition percentages relative to the negative control for each sample and for each of the tested doses. GraphPad Prism 8.0 software was used to generate concentration-response curves from the nonlinear regression fit to determine the median inhibitory or cytotoxic concentration (IC50/CC50). The resistance index (RI) for antiplasmodial tests was calculated as the ratio between the samples’ IC50 values for the chloroquine-sensitive strain 3D7 and the multiresistant strain Dd2 [69]. Inhibitors with an RI value below 1 were considered to act preferentially on the resistant strain. Based on each inhibitor’s antiparasitic efficacy (IC50) and cell toxicity (CC50), selectivity indices (SI) were calculated [SI = CC50 (RAW)/IC50 (Parasites)]. Samples were classified as poorly toxic to RAW cells if their SI values were greater than 10 [70].

[4] = set-up: method as in PMID 36249737, PMID 20162079; conditions: 400 mg/kg; from leaf extract of Osyris quadripartita; cited from earlier work
[5] = Cytotoxicity assay (resazurin) on RAW 264.7 macrophages; assay type: cell-based, murine; conditions: mouse, RAW 264.7 macrophage cells; RAW 264.7 macrophages, 48 h incubation, resazurin; read-out: Cytotoxicity on RAW 264.7 Cells CC50 ± SD
Protocol: The murine macrophage RAW 264.7 cell line was grown in DMEM (Dulbecco’s modified Eagle’s medium) containing 1% penicillin-streptomycin, 1% nonessential amino acids (NEA), and 10% HIFBS at 37 °C, and 5% CO2 in a humidified environment. A reverse Etaluma fluorescence microscope was used to view the cells every day, and the growth media was replaced every 72 h. At 80% confluence, cells were isolated using 0.25% Trypsine-EDTA (Gibco, MT, USA).
The murine macrophages, RAW 264.7 cells, were plated into a 96-well cell culture treated flat-bottomed plate ([…], Inc., Newton, NC 28658, USA) at a density of 10 × 10^4 cells/100 μL/well and incubated overnight to enable cell adhesion. A fresh complete medium containing serially diluted concentrations of crude extract, fractions, and compounds was used to replace the previous medium. The final assay concentration values for extracts/fractions and compounds varied from 400 μg/mL to 0.8 μg/mL and 100–0.16 μg/mL, respectively. Podophyllotoxin (Sigma-Aldrich, Munich, Germany) was used as a positive control at a maximum dose of 10 μM. After 48 h of incubation, 10 μL of resazurin solution (0.15 mg/mL dissolved in PBS) was added to each well, and the plates were incubated for an additional 4 h. Fluorescence data were finally recorded with a Magellan Infinite M200 plate reader (Tecan, Germany) at excitation and emission wavelengths of 530 nm and 590 nm, respectively.
as §3

[6] = tested on: promastigote form of Leishmania donovani (1S(MHOM/SD/62/1S)); experiment: Antileishmanial resazurin-based assay on promastigotes; assay type: cell-based
Protocol: A T-75 cm^2 cell culture flask was filled with complete Medium 199 [M199 supplemented with 10% heat-inactivated fetal bovine serum (HIFBS) and 100 IU/mL penicillin/streptomycin (Sigma, Darmstadt, Germany)] and used to grow the promastigote forms of Leishmania donovani. Every 72 h, flasks were subcultured and incubated at 28 °C.
The resazurin-based assay was used to evaluate the antileishmanial activity of the extract (100 μg/mL–0.16 μg/mL), major fractions (100 μg/mL–0.16 μg/mL), and isolated compounds (50 μg/mL–0.08 μg/mL) against the promastigote form of Leishmania donovani. Briefly, 10 μL of inhibitors at various triplicate doses (as prescribed for the antiplasmodial assay) were added to 90 μL of promastigotes from a logarithmic phase culture at a density of 4.10^5 parasites/mL. The plates were incubated for 28 h at 28 °C, and 10 μL of resazurin solution (Sigma, Darmstadt, Germany) was added. Amphotericin B (Sigma, Darmstadt, Germany) (10 μg–0.016 μg/mL) and 0.1% DMSO-treated wells were used as the […], respectively. After a further 44 h of incubation, plates were read using a Magelan Infinite M200 fluorescence plate reader (Tecan, Männedorf, Switzerland) at excitation and emission wavelengths of 530 and 590 nm, respectively.
as §3

[7] = tested on: chloroquine-sensitive 3D7 strain of Plasmodium falciparum (Pf3D7); experiment: Antiplasmodial SYBR Green I fluorescence assay, Pf3D7 strain; assay type: cell-based; conditions: 3D7, Pf3D7 strain, ring stage, 72 h, read-out: Antiplasmodial Activity Pf3D7 IC50 ± SD
Excerpt: as §1, §2, §3

[8] = tested on: promastigote; set-up: method as in PMID 24949478; conditions: isolate from Canarium patentinervium; cited from earlier work

## CC(=O)O[C@@H]1C[C@H]2C(C)(C)OC(=O)C=C[C@]2(C)[C@H]2CC[C@@]3(C)[C@@H](c4ccoc4)OC(=O)[C@H]4O[C@]43[C@@]21C [7α-obacunyl acetate]
[1]
  IC50, antiplasmodial activity: 5.14 mg/L

## trigilgianin
[2]
  IC50, antileishmanial activity: 6.044 mg/L

## Oc1cc(O)c2c(c1)O[C@H](c1ccc(O)c(O)c1)[C@@H](O)C2 [Catechin (9), catechin]
[3]; PfDd2 strain, ring stage, 72 h
  Antiplasmodial Activity PfDd2 IC50 ± SD: 2.93 ± 0.02 mg/L
[3]; Plasmodium falciparum, DD2, 72 h, read-out: Antiplasmodial Activity PfDd2 IC50 ± SD, PfDd2 strain, ring stage, 72 h
  IC50: 2.95 mg/L (≈ 10.2 µM)
[4]
  antimalarial effect, suppression value: 64.26%
[5]
  CC50 at 48 h: > 400 mg/L
[6]; Leishmania donovani, L. donovani promastigotes, 28 °C, read-out: Antileishmanial Activity IC50 ± SD
  IC50: 27 ± 0.7 mg/L (≈ 92.9 µM)
[6]; SI = CC50 against macrophages/IC50 against promastigotes
  Antileishmanial Selectivity (SI): >14.83
[7]
  IC50: 111.96 ± 0.04 mg/L (≈ 386 µM)
[8]
  IC50, antipromastigote activity: 478.93 ± 0.28 mg/L (≈ 1650 µM)
